Structures are written as SMILES. Where a name gives a salt, the structure may show the parent alone. Read-outs that look alike come from different tables or passages of the source. Bounds are passed on as bounds.

Data set [1] relates to cerebral serotonin. The experiment in a line: cerebral rates of serotonin after i.p. or oral administration (Curzon and Green). The format is in vivo. The source says: Table II hereinbelow summarises the cerebral rates of serotonin, in percentage with respect to the controls, after intraperitoneal or oral administration of four representative compounds of the present invention. The determination of the cerebral rates, according to Curzon and Green (Brit. J. Pharmacol. 39, 653, 1970) was effected one hour and/or two hours after administration. Fenfluramine was used as reference product.

Data set [2] relates to food intake in the rat. The experiment in a line: anorectic activity, food intake in the rat. The conditions noted are these: 1 h, food taken during first hour, read-out: ID50 (B), dose inhibiting by 50% the food intake. It is filed as in vivo. Here is the method:
(§1) The anorectic activity was assessed by the method of the food intake in the rat. Female rats weighing 200 g are used, which were trained for 10 days to eat during a period of 4 hours and selected on the eighth day. At the end of the tenth day, the randomised animals were divided into a "control group" treated by the vehicle alone, and into several "treated groups". Treatment was effected by the intraperitoneal or oral route 30 minutes or 1 hour before presentation of the food and the quantity of food therefor taken during the first hour was then measured.
(§2) the anorectic activity, expressed as oral or intraperitoneal dose inhibiting by 50% the food intake (ID50, B);
(§3) the ratio between the acute toxicity and the anorectic activity which expresses the therapeutic index related to the acute toxocity (A/B).

Data set [3] can be described thus: anorectic activity, food intake in the rat. The format is in vivo. The conditions noted are these: in vivo, read-out: A/B, ratio acute toxicity to anorectic activity (therapeutic index). Here is the method: as §1, §2, §3
Data set [4] is described as follows: acute toxicity, LD50 in the rat by oral or intraperitoneal route. The settings on record: in vivo. From the text:
the acute toxicity, expressed as LD50 in the rat by the oral or intraperitoneal route (A);

The test system of data set [5] is food intake in the rat. The settings on record: background; cited from earlier work.
For data set [6], the target named is post-synaptic serotonin receptors. The experiment in a line: 3H-serotonin binding to rat cortex membranes (Peroutka and Snyder). How it is done:
The affinity of the compounds of the present invention for the post-synaptic serotinin receptors was determined according to the method of Peroutka and Snyder (Molec. Pharmacol. 1979, 16, 687-699) which consists in incubating rat cortex membranes with a fixed concentration of ^3 H-serotonin in the presence of different concentrations of product. […] Fenfluramine was used as reference compound.

The conditions of data set [7]: background; cited from earlier work.
In data set [8] the test system is cerebral serotonin. The settings on record: at doses very close to the anorectic dose; Arch. Intern. Pharmacodyn. Ther. 1967; cited from earlier work.
[9] abbreviates: i.p., 7.5 mg/kg, 2 hrs (fenfluramine: significant P < 0.01).

Broadly, the LD50 is the dose at which mortality reaches 50%. Regarding `Cl.FC(F)(F)c1cccc(C2=CCN(CCC3CCCCC3)CC2)c1` [Example 10, 4-(3-trifluoromethylphenyl)-1-(2-cyclohexylethyl)-1,2,3,6-tetrahydropyridine hydrochloride], the “cerebral rates of serotonin” value in the data set with cerebral serotonin [1] (oral, 1.25 mg/kg, 2 hrs) was 99 % with respect to controls; in the data set on cerebral serotonin [1] (oral, 2.5 mg/kg, 2 hrs), 95 % with respect to controls; in the data set on cerebral serotonin [1] (oral, 5 mg/kg, 2 hrs), 101 % with respect to controls. Besides, the ED50 in the data set with food intake in the rat [2] (oral) came to 2.6 mg/kg. In data set [3] (oral), the selectivity ratio came to 188. Moreover, the LD50 in data set [4] (oral) came to 488 mg/kg.
Consider `Cl.FC(F)(F)c1cccc(C2=CCN(CC3CC3)CC2)c1` [Example 7, 4-(3-trifluoromethylphenyl)-1-cyclopropylmethyl-1,2,3,6-tetrahydropyridine hydrochloride], for which the “cerebral rates of serotonin” value in the data set on cerebral serotonin [1] (i.p., 3.25 mg/kg, 2 hrs) was 111 % with respect to controls; with cerebral serotonin [1] (setting [9]), 123 % with respect to controls; in the data set on cerebral serotonin [1] (i.p., 15.0 mg/kg, 2 hrs), 119 % with respect to controls. For the same molecule, in the data set on food intake in the rat [2] (ip, i.p.), the ED50 worked out at 5.5 mg/kg. The selectivity ratio in data set [3] (ip) was found to be 24.6. Further, in data set [4] (ip), the LD50 came to 135 mg/kg.
`N#CCCCCN1CC=C(c2cccc(C(F)(F)F)c2)CC1` [Example 4, 4-(3-trifluoromethylphenyl-1-(4-cyanobutyl)-1,2,3,6-tetrahydropyridine hydrochloride]: in the data set on food intake in the rat [2] (oral), the ED50 was determined as 10.5 mg/kg. In addition, the selectivity ratio in data set [3] (oral) is 32. In data set [4] (oral), this molecule gave an LD50 of 336 mg/kg.
Turning to `CC(=O)CCN1CC=C(c2cccc(C(F)(F)F)c2)CC1.Cl` [Example 6, 4-(3-trifluoromethylphenyl)-1-(3-oxobutyl)-1,2,3,6-tetrahydropyridine hydrochloride], the “cerebral rates of serotonin” value is reported as 109 % with respect to controls in the data set on cerebral serotonin [1] (i.p., 3.25 mg/kg, 2 hrs); 108 % with respect to controls with cerebral serotonin [1] (setting [9]); 116 % with respect to controls in the data set with cerebral serotonin [1] (i.p., 15.0 mg/kg, 2 hrs). The ED50 with food intake in the rat [2] (oral) was 11.8 mg/kg; in the data set on food intake in the rat [2] (ip, i.p.), 6.5 mg/kg. The selectivity ratio is 20.6 in data set [3] (ip) and 25.3 in data set [3] (oral). Also, the results for the LD50 in data set [4] (ip) and in data set [4] (oral) were 134 mg/kg and 299 mg/kg, respectively.
As to `CC(=O)CN1CC=C(c2cccc(C(F)(F)F)c2)CC1.Cl` [Example 5, 4-(3-trifluoromethylphenyl)-1-acetonyl-1,2,3,6-tetrahydropyridine hydrochloride], the ED50 in the data set on food intake in the rat [2] (ip, i.p.) was determined as 10.8 mg/kg. Also, the selectivity ratio in data set [3] (ip) turned out to be 15.3. The LD50 in data set [4] (ip) was found to be 165 mg/kg.
Turning to `Cl.N#CCCCN1CC=C(c2cccc(C(F)(F)F)c2)CC1` [Example 3, 4-(3-trifluoromethylphenyl)-1-(3-cyanopropyl)-1,2,3,6-tetrahydropyridine hydrochloride], the ED50 in the data set on food intake in the rat [2] (oral) was determined as 11.7 mg/kg; in the data set on food intake in the rat [2] (ip, i.p.), 11.1 mg/kg. Moreover, the selectivity ratio in data set [3] (ip) was found to be 23.3; in data set [3] (oral) it was 46. Moreover, the results for the LD50 in data set [4] (ip) and in data set [4] (oral) were 258 mg/kg and 538 mg/kg, respectively.
The term IC50 denotes the concentration needed to halve the response being measured. For the molecule `CCNC(C)Cc1cccc(C(F)(F)F)c1` (centres unmarked) [fenfluramine, reference compound], the “anorectic activity (in words)” value in the data set on food intake in the rat [5] was “excellent anorectic activity”. Besides, the IC50 in data set [6] was over 10 µM. Further, the “sedative or stimulant action (in words)” value in data set [7] is “instead of being stimulant, has a certain sedative action”. Moreover, the “cerebral rates of serotonin” value in the data set with cerebral serotonin [1] (i.p., 5 mg/kg, 1 hr, significant P < 0.05) was 82.9 % with respect to controls; in the data set on cerebral serotonin [1] (i.p., 7.5 mg/kg, 1 hr, significant P < 0.05), 81.6 % with respect to controls; in the data set with cerebral serotonin [1] (setting [9]), 53.1 % with respect to controls; in the data set on cerebral serotonin [1] (i.p., 10 mg/kg, 1 hr, significant P < 0.01), 79.0 % with respect to controls. For the same molecule, the figures for the “effect on cerebral rates of serotonin (in words)” value in the data set with cerebral serotonin [1] (in vivo) and with cerebral serotonin [8] were “induces a significant reduction of cerebral serotonin” and “induces a significant reduction in the cerebral rates of serotonin”, respectively. The ED50 was 4 mg/kg in the data set with food intake in the rat [2] (oral) and 5.4 mg/kg in the data set with food intake in the rat [2] (ip, i.p.). The selectivity ratio in data set [3] (ip) was 15.8; in data set [3] (oral), 25.1.
Turning to `Cl.N#CCCN1CC=C(c2cccc(C(F)(F)F)c2)CC1` [Example 2, 4-(3-trifluoromethylphenyl)-1-(2-cyanoethyl)-1,2,3,6-tetrahydropyridine hydrochloride], the “cerebral rates of serotonin” value is given as 128 % with respect to controls with cerebral serotonin [1] (setting [9]); 131.0 % with respect to controls with cerebral serotonin [1] (i.p., 15.0 mg/kg, 1 hr); 146 % with respect to controls with cerebral serotonin [1] (i.p., 15.0 mg/kg, 2 hrs); 146 % with respect to controls with cerebral serotonin [1] (i.p., 30.0 mg/kg, 2 hrs). Moreover, the ED50 worked out at 9.5 mg/kg in the data set with food intake in the rat [2] (oral) and 12 mg/kg in the data set with food intake in the rat [2] (ip, i.p.). The results for the selectivity ratio in data set [3] (ip) and in data set [3] (oral) were 17.1 and 26.7, respectively. Moreover, the LD50 in data set [4] (ip) worked out at 206 mg/kg; in data set [4] (oral), 254 mg/kg.
